Data reported in patent US5439885A, “CRF analogs” (The Salk Institute for Biological Studies, priority 1993, dated 1995).
Entries after “also recorded” stand apart in the source; their conditions may differ. Read-outs that look alike come from different tables or passages of the source. Where a SMILES comes first, the peptide text is derived from it. Where no end group is shown, it is not given here. [ ]: non-standard residue; d: D form. Nle = CCCC[C@H](N)C(=O)O

What was measured:
[1] = tested on: cultured rat pituitary cells; conditions: background statement; cited from earlier work
[2] = tested on: secretion of ACTH and β-END-LI; conditions: background statement; cited from earlier work
[3] = background statement; cited from earlier work
[4] = CRF in the brain; cited from earlier work
rats = conditions: administered into the ventricles; cited from earlier work
[5] = tested on: cultured rat pituitary cells; format: cell-based
Description: (§1) The synthetic CRF agonist peptides [Ala^20 ]-oCRF and [Ala^39 ]-oCRF are examined for their effects on the secretion of ACTH and β-endorphin in vitro and also in vivo. The potency of synthetic oCRF analogs to stimulate the secretion of ACTH and β-endorphin by cultured rat pituitary cells is measured using the procedure as generally set forth in Endocrinology, 91, 562 (1972) and compared against synthetic oCRF. [Ala^20 ]-oCRF is considered to be about 2 to 4 times as potent as the native hormone. […] In vivo testing which can be carried out using the general procedure set forth in C.

[6] = lowering of blood pressure when injected peripherally; format: in vivo, mammals; conditions: e.g. intravenously
[7] = biopotency of CRF analog (test not specified)
[8] = tested on: secretion of ACTH and β-END-LI; test: in vivo stimulation of the secretion of ACTH and β-END-LI
Description: as §1

[9] = tested on: secretion of ACTH and β-END-LI; test: inhibition of the secretion of ACTH and β-END-LI by CRF antagonists; format: in vivo; conditions: injected peripherally

Ser-Glu-Glu-Pro-Pro-Ile-Ser-Leu-Asp-Leu-Thr-phe-His-Leu-Leu-Arg-Glu-Val-Leu-Glu-Met-Ala-Arg-Ala-Glu-Gln-Leu-Ala-Gln-Gln-Ala-His-Ser-Asn-Arg-Lys-Leu-Met-Glu-Ile-Ile (SEEPPISLDLTFHLLREVLEMARAEQLAQQAHSNRKLMEII) [rCRF]
stimulation of ACTH and β-endorphin-like activities (β-END-LI) in vitro [1]: stimulate ACTH and β-endorphin-like activities | stimulation of ACTH and β-endorphin-like activities (β-END-LI) in vivo [2]: stimulate ACTH and β-endorphin-like activities | lowering of blood pressure [3]: substantially lower blood pressure

Ser-Gln-Glu-Pro-Pro-Ile-Ser-Leu-Asp-Leu-Thr-phe-His-Leu-Leu-Arg-Glu-Met-Leu-Glu-Met-Ala-Lys-Ala-Glu-Gln-Glu-Ala-Glu-Gln-Ala-Ala-Leu-Asn-Arg-Leu-Leu-Leu-Glu-Glu-Ala (SQEPPISLDLTFHLLREMLEMAKAEQEAEQAALNRLLLEEA) [AHC]
stimulation of ACTH and β-endorphin-like activities (β-END-LI) in vitro [1]: stimulate ACTH and β-endorphin-like activities | stimulation of ACTH and β-endorphin-like activities (β-END-LI) in vivo [2]: stimulate ACTH and β-endorphin-like activities | lowering of blood pressure [3]: substantially lower blood pressure

CRF: physiologic corticotropin releasing factor, a hentetracontapeptide; species form not specified at the place (SEEPPISLDLTFHLLREVLEMARAEQLAQQAHSNRKLMEII-NH2; ends and bridges not checked; UniProt P06850 154-194, looked up)
respiratory rate [4]: appears to increase respiratory rate | activity (rats): increases activity | learning performance (rats): improves learning performance

Ser-Gln-Glu-Pro-Pro-Ile-Ser-Leu-Asp-Leu-Thr-Phe-His-Leu-Leu-Arg-Glu-Val-Leu-Glu-Met-Thr-Lys-Ala-Asp-Gln-Leu-Ala-Gln-Gln-Ala-His-Ser-Asn-Arg-Lys-Leu-Leu-Asp-Ile-Ala (SQEPPISLDLTFHLLREVLEMTKADQLAQQAHSNRKLLDIA) [oCRF]
stimulation of ACTH and β-endorphin-like activities (β-END-LI) in vitro [1]: stimulate ACTH and β-endorphin-like activities | stimulation of ACTH and β-endorphin-like activities (β-END-LI) in vivo [2]: stimulates the secretion of ACTH and β-endorphin; also recorded: stimulate ACTH and β-endorphin-like activities | lowering of blood pressure [3]: lowers blood pressure; also recorded: substantially lower blood pressure

SQEPPISLDLTFHLLREVLEMTKADQLAQQAHSNRKLLAIA-NH2 [II]
increase in biopotency in vitro over the native hormone [5]: ~85%

SEEPPISLDLT[dF]HLLREVLA[Nle]ARAEQLAQQAHSNRRL[Nle]AII-NH2 [VIA]
lowering of blood pressure [6]: significant lowering of blood pressure | biopotency [7]: biopotent | stimulation of the secretion of ACTH and β-END-LI [8]: stimulates the secretion of ACTH and β-END-LI

SQEPPISLDLTFHLLREVLAMTKADQLAQQAHSNRKLLDIA-NH2 [Example I]
potency to stimulate the secretion of ACTH and β-endorphin, times as potent as the native hormone [5]: 2-4 times

CCCC[C@H](NC(=O)[C@H](C)NC(=O)[C@H](CC(C)C)NC(=O)[C@@H](NC(=O)[C@H](CCC(=O)O)NC(=O)[C@H](CCCNC(=N)N)NC(=O)[C@H](CC(C)C)NC(=O)[C@H](CC(C)C)NC(=O)[C@H](Cc1c[nH]cn1)NC(=O)[C@H](N)Cc1ccccc1)C(C)C)C(=O)N[C@@H](C)C(=O)N[C@@H](CCCNC(=N)N)C(=O)N[C@@H](C)C(=O)N[C@@H](CCC(=O)O)C(=O)N[C@@H](CCC(N)=O)C(=O)N[C@@H](CC(C)C)C(=O)N[C@@H](C)C(=O)N[C@@H](CCC(N)=O)C(=O)N[C@@H](CCC(N)=O)C(=O)N[C@@H](C)C(=O)N[C@@H](Cc1c[nH]cn1)C(=O)N[C@@H](CO)C(=O)N[C@@H](CC(N)=O)C(=O)N[C@@H](CCCNC(=N)N)C(=O)N[C@@H](CCCNC(=N)N)C(=O)N[C@@H](CC(C)C)C(=O)N[C@@H](CCCC)C(=O)N[C@@H](C)C(=O)N[C@H](C(=O)N[C@H](C(N)=O)[C@@H](C)CC)[C@@H](C)CC [IX] (H-[dF]HLLREVLA[Nle]ARAEQLAQQAHSNRRL[Nle]AII-NH2)
inhibition of the secretion of ACTH and β-END-LI [9]: inhibits the secretion of ACTH and β-END-LI | biopotency [7]: biopotent

CC[C@H](C)[C@H](NC(=O)[C@@H](NC(=O)[C@H](CCC(=O)O)NC(=O)[C@H](CCSC)NC(=O)[C@H](CC(C)C)NC(=O)[C@H](CCCCN)NC(=O)[C@H](CCCNC(=N)N)NC(=O)[C@H](CC(N)=O)NC(=O)[C@H](CO)NC(=O)[C@H](Cc1c[nH]cn1)NC(=O)[C@H](C)NC(=O)[C@H](CCC(N)=O)NC(=O)[C@H](CCC(N)=O)NC(=O)[C@H](C)NC(=O)[C@H](CC(C)C)NC(=O)[C@H](CCC(N)=O)NC(=O)[C@H](CCC(=O)O)NC(=O)[C@H](C)NC(=O)[C@H](CCCNC(=N)N)NC(=O)[C@H](C)NC(=O)[C@H](CCSC)NC(=O)[C@H](C)NC(=O)[C@H](CC(C)C)NC(=O)[C@@H](NC(=O)[C@H](CCC(=O)O)NC(=O)[C@H](CCCNC(=N)N)NC(=O)[C@H](CC(C)C)NC(=O)[C@H](CC(C)C)NC(=O)[C@H](Cc1c[nH]cn1)NC(=O)[C@@H](Cc1ccccc1)NC(=O)[C@@H](NC(=O)[C@H](CC(C)C)NC(=O)[C@H](CC(=O)O)NC(=O)[C@H](CC(C)C)NC(=O)[C@H](CO)NC(=O)[C@@H](NC(=O)[C@@H]1CCCN1C(=O)[C@@H]1CCCN1C(=O)[C@@H](N)CCC(=O)O)[C@@H](C)CC)[C@@H](C)O)C(C)C)[C@@H](C)CC)C(N)=O [IV] (H-EPPISLDLT[dF]HLLREVLAMARAEQLAQQAHSNRKLMEII-NH2)
lowering of blood pressure [6]: significant lowering of blood pressure | biopotency [7]: biopotent
